Source: patent US20060160784A1, “Method for treating neurologic diseases” (priority 2005, published 2006)
Several values for one entry are separate records, joined by “and”; a condition that tells them apart may be missing. Equal entries are not always repeated.

Tested on: G93A transgenic mice
Experiment: Survival of G93A murine ALS model mice treated with MGd from symptom onset
Assay type: in vivo
Conditions: for survival interval (survival data used for plot B), individual animals: one value per mouse, unit days
Excerpt: (§1) Transgenic mice which overexpress the G93A human Cu, Zn superoxide dismutase (SOD 1) mutant develop motor paralysis similar to amyotrophic lateral sclerosis (ALS) in humans. At 90-100 days of age, these mice develop hindlimb weakness which rapidly progresses to total body paralysis within 2-3 weeks. Such trangenic mice were used to evaluate the survival and neuroprotective action of MGd with G93A transgenic mice. In particular, the purpose of this study was to test the effect of MGd (administered at a loading dose of 5 mg/kg and a maintenance dose of 2.5 mg/kg/day i.p. thereafter).
Studies involved the use of G93A overexpressing mice purchased directly from JAX Labs. Due to the high variability in age of onset (of motor neuron disease or MND) and total survival, a mouse colony was bred using the JAX Labs protocols. […] Therefore, littermate males were chosen to sire subsequent offspring and used to produce 10-12 litters of age-matched mice for drug studies. Typically 50-60 transgenic mice were obtained from 10-12 litters and, within these groups, the variability in age of onset and survival was quite low.
(§2) The procedure used involved monitoring the transgenic mice from several litters for onset of symptoms of motor neuron degeneration. At symptom onset (muscle weakness), mice were randomly assigned sequentially to either Control (no treatment) or Treatment (MGd-treated) groups. Mice were sacrificed when moribund (unable to assume upright posture), as required by animal welfare protocol. Motexafin gadolinium formulated at 2 mM (2.3 mg/ml) in 5% aqueous mannitol was used for this study and the study group involved 10-11 animals in each group, 21 animals total.
At the onset of symptoms MGd was administered via i.p injection at a loading dose of 5 mg/kg and a maintenance dose of 2.5 mg/kg/day i.p injection. was administered thereafter.
as §1, with “(SOD1)” for “(SOD 1)”, “a” for “a loading”, “1” for “5 mg/kg and a maintenance dose of 2.5”, “i.p.).” for “i.p. thereafter).”
as §2, with “9” for “10-11”, “18” for “21”
At the onset of symptoms MGd was administered via i.p injection at a dose of 1 mg/kg/day.
as §1, with “a” for “a loading dose of 5 mg/kg and a maintenance”, “mg/kg/q.2d. and 2.5 mg/kg/q.4d. i.p.).” for “mg/kg/day i.p. thereafter).”
as §2, with “Motexafin gadolinium formulated at 2 mM (2.3 mg/ml) in 5% aqueous mannitol was used for this study and the study group involved 10-11 animals in each group, 21 animals total.” left out

CC(=O)[O-].CC(=O)[O-].CCc1c(CC)c2cc3nc(cnc4cc(OCCOCCOCCOC)c(OCCOCCOCCOC)cc4ncc4nc(cc1[n-]2)C(CCCO)=C4C)C(C)=C3CCCO.O.[Gd+3] [MGd, Motexafin Gadolinium]
extension of mean survival over untreated control mice (Example 10, loading dose 5 mg/kg i.p., then 2.5 mg/kg/day i.p.): roughly 2.7 fold
survival interval (survival data used for plot B), individual animals (Example 10, loading dose 5 mg/kg i.p., then 2.5 mg/kg/day i.p. from symptom onset): 53 days and 54 days and 26 days and 23 days and 21 days and 20 days and 46 days and 55 days and 36 days and 32 days
mean survival (Example 10, loading dose 5 mg/kg i.p., then 2.5 mg/kg/day i.p., untreated control 13.4 days, p=4×10^−5): 36.6 days
extension of mean survival over untreated control mice (Example 11, 1 mg/kg/day i.p.): roughly 2.5 fold
survival interval (survival data used for plot B), individual animals (Example 11, 1 mg/kg/day i.p. from symptom onset, 1 mg/kg/day): 48 days and 41 days (2×) and 35 days (2×) and 49 days and 39 days and 52 days and 54 days
mean survival (Example 11, 1 mg/kg/day i.p., untreated control 17.2 days, p<1×10^−5): 43.8 days
extension of survival over untreated control mice (Example 12, 2.5 mg/kg/q.2d. i.p.): roughly 1.3 fold
survival interval (survival data used for plot B), individual animals (Example 12, 2.5 mg/kg/q.2d. i.p. from symptom onset, 2.5 mg/kg): 20 days and 37 days and 35 days and 30 days and 28 days (2×)
mean survival (Example 12, 2.5 mg/kg/q.2d. i.p., untreated control 23 days, p=0.069): 30 days
extension of survival over untreated control mice (Example 12, 2.5 mg/kg/q.4d. i.p.): ~1.4 fold
survival interval (survival data used for plot B), individual animals (Example 12, 2.5 mg/kg/q.4d. i.p. from symptom onset, 2.5 mg/kg): 30 days and 38 days and 20 days and 35 days and 26 days and 47 days
mean survival (Example 12, 2.5 mg/kg/q.4d. i.p., untreated control 23 days, p=0.068): 33 days
